Experimental findings from patent US6773733B2, “Structured particulate systems” (Loders Croklaan USA LLC, priority 2001, dated 2004) are described below.

Holding throughout (format): physicochemical
Data set [1] is described as follows: Comparative homogeneity test in vegetable oil. The conditions noted are these: added to 1 kg of vegetable oil, mixed for 5 minutes, continuous visual inspection. Here is the method:
Comparative homogeneity test of structured particulate Folic Acid with non-structured active particulate component: 1. 10 milligrams of non-structured active particulate component Folic Acid is added to 1 kg of vegetable oil and 40 milligrams of structured particulate Folic Acid (25%) to another 1 kg of vegetable oil. 2. Each sample is mixed for 5 minutes with continuous visual inspection for homogeneity.

The next data set can be described thus: Loose bulk density. The text has this:
Loose bulk density being measured by measuring the volume of a known mass powder sample, that has passed through a screen into a gradulated cylinder. The procedure is described in USP<616<Bulk Density and Tapped Density.

A short description of data set [2]: Mean weight diameter by screen analysis. The conditions noted are these: weight fraction at screen multiplied by screen opening, summed for all screen sizes. As to the method:
Folic acid is used as the active component It has a mean weight diameter of 246 microns and a loose bulk density of 0.2 g/cc. The mean weight diameters is calculated as follows: weight fraction at screen multiplied by screen opening (microns), summed for all screen sizes.

For the molecule `Nc1nc2ncc(CNc3ccc(C(=O)N[C@@H](CCC(=O)O)C(=O)O)cc3)nc2c(=O)[nH]1` [Folic acid], the “homogeneity / dispersion by visual inspection” value in data set [1] is “clumps together and sticks to the container walls”. In addition, in “Loose bulk density”, the loose bulk density is 0.2 g/cc. This molecule gave a mean weight diameter in data set [2] of 246 microns.
